According to patent US20010018073A1, “Transdermal compositions with enhanced skin penetration properties” (JENAPHARM GMBH & CO., KG, priority 1997, published 2001):

Columns and labels:
[1] = T2 relaxation times of destructuring and structuring agents in water; format: physicochemical; settings: solute in water, concentration 0.5 mol/l
[2] = substance on its own versus ANP employed as accelerant; cited from earlier work

## OC[C@H]1O[C@@](CO)(O[C@H]2O[C@H](CO)[C@@H](O)[C@H](O)[C@H]2O)[C@@H](O)[C@@H]1O [Sucrose]
[1]
  T2 relaxation time: 18.7 ms

## NC(N)=O [Urea]
[1]
  T2 relaxation time: 145 ms

## O=[N+]([O-])O[C@H]1CO[C@H]2[C@@H]1OC[C@H]2O[N+](=O)[O-] [ISDN, isosorbide dinitrate]
[2]
  permeation through the skin relative to ANP: 10 factor
